{"source": "patent EP0912571B1", "about": "“NAPHTHYRIDINES WHICH AFFECT IL-4 AND G-CSF” (SCHERING CORPORATION, priority 1996, dated 1997)", "key": {"human G-CSF production": {"test_system": "human G-CSF production", "assay": "In vitro enhancement of G-CSF production in PHA-stimulated PBMNC's (ELISA of culture supernatant)", "type": "cell-based", "details": "PBMNC's with 5µg/ml PHA", "method": "(§1) In order to determine the effect of compound AA on human G-CSF production, human peripheral blood mononuclear cells (PBMNC's) were prepared (as described in Ficoll-Paque: For in vitro isolation of lymphocytes (booklet) 1983 Pharmacia, Uppsala Sweden; which is hereby incorporated by reference) and cultured as described (in Oster et al, 1989 Blood 73:64. which is hereby incorporated by reference) with 5µg/ml phytohemagglutin (PHA) in the presence of varying concentrations of compound AA or vehicle (0.1% dimethylsulfoxide, DMSO). After 40 hours, culture supernatant was collected and cytokine levels measured by ELISA (R&D Systems, Minneapolis MN). Alternatively mRNA was prepared by standard protocols from these cells after 24 hour incubation, reverse-transcribed and subjected to polymerase chain reaction (PCR)"}, "[1]": {"test_system": "TNFα, TNFβ, IL-1α, IL-1 β, IL-3, IL-6, IL-8, or GM-CSF", "assay": "Specificity: production of other cytokines in the PBMNC culture (ELISA)", "type": "cell-based, human", "details": "PHA-stimulated PBMNC's", "method": "as §1\nThis effect was specific for G-CSF, since no change in the production of TNFα, TNFβ, IL-1α, IL-1 β, IL-3, IL-6, IL-8, or GM-CSF was observed."}, "G-CSF mRNA": {"test_system": "G-CSF mRNA", "assay": "Steady-state G-CSF mRNA levels in stimulated cell cultures (reverse transcription, PCR)", "type": "cell-based, human"}, "BALB/cJ mice": {"test_system": "BALB/cJ mice", "assay": "In vivo acceleration of recovery from neutropenia in cyclophosphamide-treated mice (flow cytometry of granulocytes)", "details": "for granulocyte recovery: return to normal numbers: 40 mg/kg daily from day 1 after single sublethal dose of CY on day 0", "method": "To test the activity of compound AA in enhancing peripheral neutrophil numbers and accelerating recovery of the neutrophil compartment, BALB/cJ mice were rendered neutropenic by treatment with a single sublethal dose of CY on day 0. Mice were then treated daily, starting on day 1, with 40 mg/kg compound AA or vehicle (carboxymethyl cellulose CMC) and sacrificed on days 3, 5, 6, 8 or 10 and granulocyte populations in peripheral blood and spleen analyzed by flow cytometry. Granulocytes were detected using the RB6-8C5 antibody, specific for granulocytes (see Hestdal et al 1991 J. Immunol. 147:22. which is hereby incorporated by reference) and the Mac-1 antibody, specific for myeloid cells (see Springer et al JEur. J. lmmunol. 9: 301). […] Compound AA administration accelerated granulocyte recovery in both blood and spleen, with a return to normal numbers by day 5 in blood and day 4 in spleen. These granulocytes were confirmed to be exclusively segmented neutrophils by cytological examination. Neutrophil recovery was delayed by 1-2 days in CY-dosed mice given vehicle, compared to compound AA - treated animals. No changes in percentage or number of monocytes were observed."}, "[2]": {"test_system": "bone marrow steady-state G-CSF mRNA", "assay": "Endogenous G-CSF in CY-dosed mice: bone marrow steady-state G-CSF mRNA by PCR", "type": "in vivo", "details": "CY-dosed mice administered compound AA", "method": "Acceleration of neutrophil recovery by compound AA may occur by stimulating neutrophil development at the level of the bone marrow (see Demetri et al 1991 Blood 78: 2791).To confirm that compound AA was acting in vivo by enhancing endogenous G-CSF production, bone marrow steady-state G-CSF mRNA levels were determined by PCR."}, "[3]": {"test_system": "mice made neutropenic with CY", "assay": "Comparison of compound AA with rhG-CSF in the CY neutropenia model", "type": "in vivo", "details": "compound AA at 40mg/kg daily, granulocyte levels in peripheral blood on day 5", "method": "Exogeneous G-CSF administration is now standard therapy for patients undergoing a neutropenic episode In order to compare compound AA treatment with G-CSF therapy in the CY model described above, we administered either compound AA or recombinant human G-CSF daily to mice made neutropenic with CY. Granulocyte levels in peripheral blood were determined on day 5."}, "[4]": {"details": "40 mg/kg daily, CY-treated mice"}}, "data": [{"smiles": "CC(=O)Nc1ccc(S(=O)(=O)Nc2nc(-c3ncccc3C)cc3cccnc23)cc1", "note": "[compound AA]", "values": [{"measurement": "EC50", "setting": "human G-CSF production; Homo sapiens, G-CSF levels, 40 hours, read-out: effective concentration50 (EC50)", "value": 15, "unit": "µM"}, {"measurement": "increase in G-CSF levels", "setting": "human G-CSF production; supernatant after 40 hours, ELISA", "value": "4-5 fold"}, {"measurement": "change in the production of TNFα, TNFβ, IL-1α, IL-1 β, IL-3, IL-6, IL-8, or GM-CSF", "setting": "[1]", "value": "no change"}, {"measurement": "Steady-state G-CSF mRNA levels", "setting": "G-CSF mRNA; LPS-stimulated monocytes", "value": "increased"}, {"measurement": "Steady-state G-CSF mRNA levels", "setting": "G-CSF mRNA; PHA-stimulated PBMNC's", "value": "increased"}, {"measurement": "delay of neutrophil recovery in CY-dosed mice given vehicle, compared to compound AA-treated animals", "setting": "BALB/cJ mice; 40 mg/kg daily", "value": "1 to 2", "unit": "days"}, {"measurement": "changes in percentage or number of monocytes", "setting": "BALB/cJ mice; [4]", "value": "No changes"}, {"measurement": "gross toxicity or abnormalities", "setting": "BALB/cJ mice; [4]", "value": "No evidence of gross toxicity or abnormalities"}, {"measurement": "granulocyte recovery: return to normal numbers", "setting": "BALB/cJ mice; blood", "value": "≤ 5", "unit": "days"}, {"measurement": "granulocyte recovery: return to normal numbers", "setting": "BALB/cJ mice; spleen", "value": "≤ 4", "unit": "days"}, {"measurement": "bone marrow G-CSF mRNA levels", "setting": "[2]", "value": "enhanced"}, {"measurement": "ability to enhance peripheral blood neutrophil numbers versus 250mg/kg rhG-CSF", "setting": "[3]", "value": "comparable"}, {"measurement": "ability to enhance peripheral blood neutrophil numbers versus 50-125mg/kg rhG-CSF", "setting": "[3]", "value": "greater"}]}]}
